Data taken from ChEMBL document CHEMBL1201862, “PubChem BioAssay data set” (2004).
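Assay format: 96-well plates, 48-hour exposure. GI50 = concentration required for 50% inhibition of growth.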 Activity calls are given as the source filed them. Cut-off read from the data, not from the text of the source: active = GI50 up to about 1.1 µM and inactive = higher.

How the values were obtained:
Experiment in all cases: NCI anticancer screen, dose series, 48 h
NCI-H23 = test system: NCI-H23
HCT-15 = test system: HCT-15
UO-31 = test system: UO-31
RXF 393 = test system: RXF 393
SNB-19 = test system: SNB-19
HOP-92 = test system: HOP-92
CAKI-1 = test system: CAKI-1
TK-10 = test system: TK-10
ACHN = test system: ACHN
HOP-62 = test system: HOP-62
LOX IMVI = test system: LOX IMVI
COLO 205 = test system: COLO 205
IGROV-1 = test system: IGROV-1
SF-539 = test system: SF-539
A549 = test system: A549
HL-60 = test system: HL-60
SR = test system: SR

NC(=S)N/N=C1\C(=O)N(CCc2ccccc2)C(=O)C1C(=O)NCCc1ccccc1 (stereo unspecified)
GI50 (NCI-H23): > 100 µM (inactive)
GI50 (HCT-15): > 100 µM
GI50 (UO-31): > 100 µM (inactive)
GI50 (RXF 393): > 100 µM (inactive)
GI50 (SNB-19): > 100 µM (inactive)
GI50 (HOP-92): > 100 µM (inactive)
GI50 (CAKI-1): > 100 µM (inactive)
GI50 (TK-10): > 100 µM (inactive)
GI50 (ACHN): > 100 µM (inactive)
GI50 (HOP-62): > 100 µM (inactive)
GI50 (LOX IMVI): > 100 µM (inactive)
GI50 (COLO 205): > 100 µM (inactive)
GI50 (IGROV-1): > 100 µM (inactive)
GI50 (SF-539): > 100 µM (inactive)

COC(=O)c1c(N)n[nH]c1N
GI50 (NCI-H23): > 100 µM (inactive)
GI50 (UO-31): > 100 µM (inactive)
GI50 (RXF 393): > 100 µM (inactive)
GI50 (SNB-19): > 100 µM (inactive)
GI50 (HOP-92): > 100 µM (inactive)
GI50 (CAKI-1): > 100 µM (inactive)
GI50 (TK-10): > 100 µM (inactive)
GI50 (A549): > 100 µM (inactive)
GI50 (HOP-62): > 100 µM (inactive)
GI50 (LOX IMVI): > 100 µM (inactive)
GI50 (COLO 205): > 100 µM (inactive)
GI50 (HL-60): > 100 µM (inactive)
GI50 (IGROV-1): > 100 µM (inactive)
GI50 (SF-539): > 100 µM (inactive)
GI50 (SR): > 100 µM (inactive)

Cc1ccc(/C=C2\CCCCC2=O)cc1
GI50 (NCI-H23): > 100 µM (inactive)
GI50 (HCT-15): > 100 µM
GI50 (UO-31): 78.9 µM (inactive)
GI50 (CAKI-1): 42.7 µM (inactive)
GI50 (TK-10): > 100 µM (inactive)
GI50 (ACHN): 48.1 µM (inactive)
GI50 (A549): > 100 µM (inactive)
GI50 (HOP-62): > 100 µM (inactive)
GI50 (LOX IMVI): 31.5 µM (inactive)
GI50 (COLO 205): > 100 µM (inactive)
GI50 (HL-60): 19 µM (inactive)
GI50 (IGROV-1): > 100 µM (inactive)
GI50 (SF-539): > 100 µM (inactive)

CC(CCc1ccc2c(c1)c(N)c1ccc(N)cc1[n+]2[O-])CC(C)(C)C (stereo unspecified)
GI50 (NCI-H23): 1.31 µM (inactive)
GI50 (HCT-15): 4.26 µM
GI50 (UO-31): 8.95 µM (inactive)
GI50 (RXF 393): 2 µM (inactive)
GI50 (CAKI-1): 1.47 µM (inactive)
GI50 (TK-10): 1.83 µM (inactive)
GI50 (ACHN): 1.73 µM (inactive)
GI50 (A549): 1.63 µM (inactive)
GI50 (HOP-62): 1.83 µM (inactive)
GI50 (LOX IMVI): 1.52 µM (inactive)
GI50 (COLO 205): 1.45 µM (inactive)
GI50 (HL-60): 1.3 µM (inactive)
GI50 (IGROV-1): 1.49 µM (inactive)
GI50 (SF-539): 1.93 µM (inactive)
GI50 (SR): 1.62 µM (inactive)

O=c1cc(CO)oc2c3c(cc(O)c12)OCC(COC1OC(CO)C(O)C(O)C1O)=CC3 (stereo unspecified)
GI50 (NCI-H23): > 100 µM (inactive)
GI50 (HCT-15): > 100 µM
GI50 (UO-31): > 100 µM (inactive)
GI50 (RXF 393): > 100 µM (inactive)
GI50 (SNB-19): > 100 µM (inactive)
GI50 (HOP-92): > 100 µM (inactive)
GI50 (CAKI-1): > 100 µM (inactive)
GI50 (TK-10): > 100 µM (inactive)
GI50 (ACHN): > 100 µM (inactive)
GI50 (A549): > 100 µM (inactive)
GI50 (HOP-62): > 100 µM (inactive)
GI50 (LOX IMVI): > 100 µM (inactive)
GI50 (COLO 205): > 100 µM (inactive)
GI50 (HL-60): > 100 µM (inactive)
GI50 (IGROV-1): > 100 µM (inactive)
GI50 (SF-539): > 100 µM (inactive)
GI50 (SR): > 100 µM (inactive)

CN(CC1NCCCC1O)C12CC3CC(CC(C3)C1)C2 (stereo unspecified)
GI50 (NCI-H23): > 100 µM (inactive)
GI50 (HCT-15): > 100 µM
GI50 (UO-31): > 100 µM (inactive)
GI50 (SNB-19): > 100 µM (inactive)
GI50 (HOP-92): > 100 µM (inactive)
GI50 (CAKI-1): > 100 µM (inactive)
GI50 (TK-10): > 100 µM (inactive)
GI50 (ACHN): > 100 µM (inactive)
GI50 (A549): > 100 µM (inactive)
GI50 (HOP-62): > 100 µM (inactive)
GI50 (LOX IMVI): > 100 µM (inactive)
GI50 (COLO 205): > 100 µM (inactive)
GI50 (HL-60): > 100 µM (inactive)
GI50 (IGROV-1): > 100 µM (inactive)
GI50 (SF-539): > 100 µM (inactive)

Clc1ccc(C(n2cc(Br)cn2)n2cc(Br)cn2)cc1
GI50 (NCI-H23): 17.9 µM (inactive)
GI50 (HCT-15): 13.8 µM
GI50 (UO-31): 0.267 µM (active)
GI50 (RXF 393): 14.5 µM (inactive)
GI50 (SNB-19): > 10 µM (inactive)
GI50 (HOP-92): 15 µM (inactive)
GI50 (CAKI-1): 11.1 µM (inactive)
GI50 (TK-10): 17.4 µM (inactive)
GI50 (ACHN): 14.5 µM (inactive)
GI50 (A549): 14.7 µM (inactive)
GI50 (HOP-62): 17.8 µM (inactive)
GI50 (COLO 205): 16.1 µM (inactive)
GI50 (HL-60): 17.8 µM (inactive)
GI50 (IGROV-1): 18.7 µM (inactive)
GI50 (SF-539): > 10 µM (inactive)

CCc1ccccc1NC(=O)CC1NC(=O)CS1 (stereo unspecified)
GI50 (NCI-H23): > 100 µM (inactive)
GI50 (UO-31): > 100 µM (inactive)
GI50 (RXF 393): > 100 µM (inactive)
GI50 (SNB-19): > 100 µM (inactive)
GI50 (HOP-92): > 100 µM (inactive)
GI50 (CAKI-1): > 100 µM (inactive)
GI50 (TK-10): > 100 µM (inactive)
GI50 (A549): > 100 µM (inactive)
GI50 (HOP-62): > 100 µM (inactive)
GI50 (LOX IMVI): > 100 µM (inactive)
GI50 (COLO 205): > 100 µM (inactive)
GI50 (HL-60): > 100 µM (inactive)
GI50 (IGROV-1): > 100 µM (inactive)
GI50 (SF-539): > 100 µM (inactive)

CCCOP1(=O)C=C(C)C(Cl)=C(C)C1 (stereo unspecified)
GI50 (NCI-H23): 16.9 µM (inactive)
GI50 (HCT-15): 20 µM
GI50 (UO-31): 45.3 µM (inactive)
GI50 (RXF 393): 18 µM (inactive)
GI50 (SNB-19): > 100 µM (inactive)
GI50 (HOP-92): 18.4 µM (inactive)
GI50 (TK-10): 23.1 µM (inactive)
GI50 (ACHN): 21.4 µM (inactive)
GI50 (A549): 21.6 µM (inactive)
GI50 (HOP-62): 42.4 µM (inactive)
GI50 (LOX IMVI): 13.3 µM (inactive)
GI50 (COLO 205): 11.2 µM (inactive)
GI50 (HL-60): 22.3 µM (inactive)
GI50 (IGROV-1): 34.6 µM (inactive)
GI50 (SF-539): 25.7 µM (inactive)
GI50 (SR): 17.9 µM (inactive)

COc1cc2c(cc1O)C1C(O)C(O)C=C3CCN(C2)C31 (stereo unspecified)
GI50 (NCI-H23): 2.13 µM (inactive)
GI50 (HCT-15): 3.61 µM
GI50 (UO-31): 2.77 µM (inactive)
GI50 (RXF 393): 1.45 µM (inactive)
GI50 (SNB-19): 1.39 µM (inactive)
GI50 (HOP-92): 1.16 µM (inactive)
GI50 (CAKI-1): 1.9 µM (inactive)
GI50 (TK-10): 2.65 µM (inactive)
GI50 (ACHN): 1.85 µM (inactive)
GI50 (A549): 2.11 µM (inactive)
GI50 (HOP-62): 2.92 µM (inactive)
GI50 (LOX IMVI): 0.76 µM (active)
GI50 (COLO 205): 1.44 µM (inactive)
GI50 (HL-60): 2.66 µM (inactive)
GI50 (IGROV-1): 2.74 µM (inactive)
GI50 (SF-539): 2.09 µM (inactive)
GI50 (SR): 2.08 µM (inactive)
